From patent US6610494B2, “Solid-phase activity assay for biologically active substance” (priority 1996, dated 2003)

Experiments:
[1] = molecular target: T1, trypsin egg white inhibitor (ovomucoid) (Gallus gallus, UniProt P01005); assay: BEISA: competition of unlabelled proteases with biotinylated trypsin for coated inhibitor; assay type: binding; details: ovomucoid-coated plate
T1 construct: purchased Sigma Chemical Co. or Fisher Scientific Co
T1 sequence (P01005 25-210): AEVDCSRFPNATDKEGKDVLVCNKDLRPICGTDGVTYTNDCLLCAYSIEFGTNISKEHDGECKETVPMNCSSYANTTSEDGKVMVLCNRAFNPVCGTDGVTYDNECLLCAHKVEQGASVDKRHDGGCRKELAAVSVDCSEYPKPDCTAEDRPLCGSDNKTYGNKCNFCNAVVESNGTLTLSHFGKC
Experimental: The 96-well microtiter plate (Falcon 3911) was coated with trypsin egg white inhibitor (ovomucoid, 4 ug/100 ul/well) at […] overnight. The plate was washed once using PBST {[PBS, NaCl, 9.00; Na2HPO4, 1.15; NaH2PO4, 0.23 (g/l) pH 7.2] plus 0.05% Tween-20} and 200 ul of 5% skim milk was added to each well of the plate followed by incubation at 37° C. for 2 hours. The plate was rinsed twice with PBST and 50 ul of PBS was added to each well of the plate except for those in column one where 100 ul of PBS was added. Unlabelled trypsin (50 ul of 400 ug/ml) was added to the wells of the second column followed by successive double dilutions of trypsin in wells up to and including those in column 11. Biotinylated trypsin in PBS (50 ul of 1:3000 dilution of the stock to yield approximately 2 ug/100 ul/well) was added to each well except those in the first column followed by incubation at 37° C. for 1 hour. The final volume in each well was 100 ul. The blank set of wells with no trypsin (column 1) served as the negative control while the last set of wells (column 12) with biotinylated trypsin but no unlabelled trypsin served as the positive control. […] The absorbency was then read at 405 nm using a microplate reader (Bio-Rad laboratories Inc. Mississauga, ON, Canada, model 450). […]

[2] = system: biotinylated α-casein; assay: Solid phase protease activity assay using biotinylated casein; assay type: biochemical
Experimental: Preparation of biotinylated casein: 12 mg α-casein in 1 ml of 0.1 M pH 7.2 phosphate-buffer saline [PBS, NaCl, 9.00; Na2HPO4, 1.15; NaH2PO4, 0.23 (g/l)] was allowed to react with 3.6 mg NHS-biotin in 150 ul DMSO for 2 hours at room temperature with gently shaking.
Assay procedure for protease activity using biotinylated casein: The microtitre plates except for the first column of 8 wells were coated using biotinylated α-casein in PBS (0.13 ug/well/100 ul) and incubated for 2 hours at 37° C. The plates were washed three times with 0.1 M PBST (PBS with 0.05% Tween-20). Different concentrations of the enzyme solution as indicated in FIGS. 12-14 (100 ul) were diluted with the appropriate buffer (see Table 2). They were added in triplicate to the wells of a plate followed by incubating in a humid atmosphere at 37° C. for 30 minutes. The plate was washed three times using PBST to terminate the protease reaction. A streptavidin-alkaline phosphatase solution (100 ul/well, 1:1000 dilution in bicarbonate buffer pH 9.5) was added to all wells in the plate except for the first column of 8 wells (as blank) and the plate was incubated at room temperature for 30 minutes. The blank set of wells contained only PBS, no added enzyme and no coating with biotinylated casein. The reaction was stopped by emptying and washing the plate six times with PBST. The pNPP substrate (100 ul/well, 1 mg/ml in 10% diethanolamine buffer pH9.8) was added to each well of the plate followed by incubation at room temperature for about 20 minutes. The absorbency was then read at 405 nm using a microplate reader (Bio-Rad laboratories, Ltd, Mississauga, ON, Canada; model 450). The best sensitivity was obtained when the maximum absorbency was around 2.0 optical density units.

[3] = optimal pH of each protease, 37° C., 30 minutes

trypsin was tested, and the “Concentration of trypsin that could be detected” value [1] was 0.1 to 1.0 µg/mL, the “Sensitivity: amount of enzyme required to produce a 10% decrease in maximal absorbency” value ([2]; 0.5 hour hydrolysis) was 30 ng/100 ul and the “Hydrolysis of biotin-casein by proteases” value [2, 3] was “Yes”. For the same substance, the “Sensitivity (amount of enzyme required to hydrolyse 10% of the biotinylated α-casein)” value [2, 3] was 30 ng/100 ul/sample.
